Patent US20240197828A1, “Chimeric molecule to treat sepsis and other inflammatory conditions” (THE FEINSTEIN INSTITUTES FOR MEDICAL RESEARCH, priority 2022, published 2024)

Key:
RAW264.7 macrophages = test: Intracellular uptake of FITC-rmCIRP by macrophages (flow cytometry, confocal microscopy); format: cell-based, mouse; details: RAW264.7, FITC-rmCIRP 1 μg/mL co-incubated with test substance (peptide 10 μg/mL), 1 hour, vs FITC-rmCIRP alone
Experimental: FIG. 3. Effects of MOP peptides MOP-3, MOP-8 and MOP-14 on eCIRP. Flow cytometry experiment whereby RAW264.7 macrophages were treated for 1 hour according to respective group: PBS (volume-equivalent), FITC-rmCIRP (1 μg/mL), or a mixture of FITC-rmCIRP (1 μg/mL) with each respective peptide (10 μg/mL) after co-incubating for 30 minutes. Intracellular FITC-rmCIRP was analyzed by flow cytometry. Median fluorescence intensity (MFI) reported as percentage relative to PBS-treated RAW264.7 cells. Data from two independent experiments are expressed as mean±SEM and compared by one-way ANOVA and SNK test. *p<0.05 vs. PBS, #p<0.05 vs. eCIRP.
(§1) Computational modeling was used to determine the likely domain of MFG-E8's binding to eCIRP. The known amino acid (AA) sequence of this domain was used to develop and test potential therapeutic peptides. An MFG-E8 derived oligopeptide, MOP3, was developed based on 15 AA from MFG-E8 discoidin 2 domain (mimicking MFG-E8's C-terminal) and tagged with the 3 AA, RGD, (mimicking MFG-E8's binding capacity for the integrin receptor at the N-terminal). Binding of MOP3 to CIRP was quantified using Surface Plasmon Resonance (SPR) analysis. Macrophages (RAW264.7 cells) were treated with FITC-recombinant mouse (rm)-CIRP or co-incubated MOP3 and FITC-rmCIRP with and without a. Br-integrin Ab. After 1 h, cells were fixed and analyzed for intracellular FITC-rmCIRP by flow cytometry. Macrophages were stimulated with rmCIRP or co-incubated mixture of MOP3 and rmCIRP. After 4 h, cell culture supernatants were analyzed for inflammatory cytokine, TNFα.
Mouse macrophage cell line, RAW264.7 cells were obtained from American Type Culture Collection (ATCC) and cultured in DMEM media with 10% FBS, 1% penicillin and streptomycin, and 1% glutamine. Cells were kept in 37° C. incubator under humidified conditions containing 5% CO2.
rmCIRP was labeled using a FITC Conjugation Kit (Abcam, ab188285), and rmMFG-E8 was labeled using Alexa Fluor Conjugation Kit (Abcam, ab269821), both according to respective manufacturer's instructions.
In order to visualize cellular uptake, we initially utilized TRITC-BSA as an internal probe, as BSA is taken up into cells primarily by endocytosis and retained intracellularly after fixation (27, 28). For further visualization of intracellular localization, we utilized LAMP1 primary antibody (as it is distributed among endolysosomal organelles and serves as a marker for lysosomal compartments) (29), and utilized lysotracker in live cell experiments (as it allows for imaging of dynamics of lysosome vesicle movements) (30). RAW264.7 cells were treated in various conditions with rmCIRP, rmMFG-E8, and inhibitory antibody against auß3-integrin (Bioss antibodies, bs-1310R) for 4 hours. Cells were fixed with 4% paraformaldehyde (PFA), washed with 1×PBS, permeabilized using 0.3% Triton x100, and blocked using 5% BSA 100 mM Glycine in PBS prior to primary antibody treatment. After incubation with secondary antibodies, cells were washed and mounted with ProLong Gold antifade reagent (Invitrogen). For live cell imaging, cells remained in treatment conditions and were imaged under CO2. Staining procedures were performed according to the manufacturers' instructions utilizing respective fluorescent dyes and probes. For all imaging, confocal microscopy images were obtained using a Zeiss LSM880 confocal microscope equipped with a 63× objective. Images were quantified and analyzed using Image J, FIJI.(31) Flow cytometry.
To detect changes in internalized eCIRP in the presence of MFG-E8, RAW264.7 cells were seeded in 12-well plates (approximately 3×10^5 cells/well) and were treated with FITC-eCIRP. Treatment groups consisted of FITC-eCIRP, FITC-eCIRP with MFG-E8, FITC-eCIRP with MFG-E8 and αvβ3-integrin antibody (0.5 μg/mL), or FITC-eCIRP with MFG-E8 and IgG isotype (0.5 μg/mL). Similar experiments were conducted with MOP3 instead of MFG-E8 in parallel groups. […]

RAW264.7 cells = test: eCIRP-induced cytokine release in RAW264.7 cells (ELISA of supernatants); format: cell-based, mouse; details: RAW264.7, rmCIRP 1 μg/mL, 4 hours, vs rmCIRP alone
Experimental: FIG. 2. Effects of MOP peptides on TNFα levels. RAW264.7 macrophages were cultured and treated with either volume-equivalent PBS, recombinant murine (rm) CIRP (eCIRP; 1 μg/mL), or rmCIRP with each respective peptide (10 μg/mL). After 4 hours, cell supernatants were assessed for TNFα levels by ELISA. Experiments were performed 3 times, and all data were used for analysis. Data are expressed as mean±SEM and compared by one-way ANOVA and SNK test. *p<0.05 vs. PBS, #p<0.05 vs. eCIRP.
FIG. 4. eCIRP-induced inflammation is attenuated by MOP3. RAW264.7 cells were treated according to respective groups: PBS (volume equivalent), rmCIRP (1 μg/mL), or rmCIRP with MOP3 at increasing doses. After 4 hours, cell supernatants were analyzed for TNFα levels by ELISA. Experiments were performed 3 times, and all data were used for analysis. Data are expressed as mean #SEM and compared by one-way ANOVA and SNK test. *p<0.05 vs. PBS, #p<0.05 vs. eCIRP.
as §1
Mouse macrophage cell line, RAW264.7 cells were obtained from American Type Culture Collection (ATCC) and cultured in DMEM media with 10% FBS, 1% penicillin and streptomycin, and 1% glutamine. Cells were kept in 37° C. incubator under humidified conditions containing 5% CO2. […]
The mouse macrophage cell culture supernatants were analyzed for cytokine levels using ELISA kits (BD Biosciences, CA). […] TNF-α and IL-6 levels were measured in cell supernatants by ELISA in accordance with respective manufacturers' instructions (BD Biosciences, CA). Blood was collected, centrifuged at 4,000 RPM for 10 minutes, and sera was separated and analyzed for cytokine levels using ELISA kits (BD Biosciences, CA). TNF-α and IL-6 levels in the serum were measured by ELISA in accordance with respective manufacturers' instructions.

Substance | intracellular FITC-rmCIRP uptake (flow cytometry) (RAW264.7 macrophages) | TNFα levels in cell supernatants (RAW264.7 cells)
MOP3-modification to “RGT”: modified peptide whereby the Arg-Gly-Asp AAs of MOP3 were edited to Arg-Gly-Thr (RGT) (RGTSSSYKTWNLRAFGWY) [reference compound] | loss of ability to internalize FITC-eCIRP | 
RGDPFMARYVRVLPVSWH (listed as Mus musculus) [MOP14, RGD-tagged segment of murine MFG-E8 discoidin domain 2] | only a single peptide screened, peptide-3, could increase intracellular uptake | capable of attenuating TNFα release
RGDVTGIITQGARDFGHI (listed as Mus musculus) [MOP8, RGD-tagged segment of murine MFG-E8 discoidin domain 2] | only a single peptide screened, peptide-3, could increase intracellular uptake | capable of attenuating TNFα release
